Legend:
Assay type in all cases: cell-based
[1] = biological target: T1, Ba/F3 cells with EGFR exon 20 NPG Ins D770_N771 (Homo sapiens, UniProt P00533, INS770NPG); assay: EGFR activity: Ba/F3 cell viability (CellTiter-Glo, 72 h), EGFR exon 20 NPG insertion; conditions: EGFR exon 20 NPG Ins D770_N771, cell viability, read-out: BaF3 NPG IC50
T1 construct: expressed in transfected cells; host or cells: Ba/F3 (murine pro-B cells), retroviral transduction, puromycin selection, IL3-independent pool

[2] = biological target: T2, Ba/F3 cells with EGFR exon 20 ASV Ins V769_D770 (Homo sapiens, UniProt P00533, INS769ASV); assay: EGFR activity: Ba/F3 cell viability (CellTiter-Glo, 72 h), EGFR exon 20 ASV insertion; conditions: EGFR exon 20 ASV Ins V769_D770, cell viability, read-out: BaF3 ASV IC50
T2 construct: expressed in transfected cells; host or cells: Ba/F3 (murine pro-B cells), retroviral transduction, puromycin selection, IL3-independent pool

pEGFR in CUTO14 cells = biological target: T3, pEGFR in CUTO14 cells (Homo sapiens, UniProt P00533, DUP767-769); assay: Inhibitor activity on EGFR phosphorylation (pEGFR AlphaLISA, 2 h), CUTO14 cells
T3 construct: endogenous in cells; host or cells: CUTO14 cells
Method: CUTO14 cells were obtained from Dr. Robert C. Doebele at the University of Colorado.
Shake 350 rpm for 1 hr in the dark • 3.4 Prepare donor mix under low light conditions prior to use. Dispense 5 μL of donor mix to all the wells. Mix well on the shaker, seal and wrap in aluminum foil and incubate 1.5 hrs at room temperature in the dark • 3.5 Transfer 18.5 μL mixture to OptiPlate 384, and read using an Envision.

Ba/F3 cells with EGFR WT = biological target: T4, Ba/F3 cells with EGFR WT (Homo sapiens, UniProt P00533); assay: EGFR activity: Ba/F3 cell viability (CellTiter-Glo, 72 h), EGFR WT; conditions: read-out: BaF3 WT IC50
T4 construct: expressed in transfected cells; host or cells: Ba/F3 (murine pro-B cells), retroviral transduction, puromycin selection, maintained with EGF
T4 sequence (P00533 25-1210): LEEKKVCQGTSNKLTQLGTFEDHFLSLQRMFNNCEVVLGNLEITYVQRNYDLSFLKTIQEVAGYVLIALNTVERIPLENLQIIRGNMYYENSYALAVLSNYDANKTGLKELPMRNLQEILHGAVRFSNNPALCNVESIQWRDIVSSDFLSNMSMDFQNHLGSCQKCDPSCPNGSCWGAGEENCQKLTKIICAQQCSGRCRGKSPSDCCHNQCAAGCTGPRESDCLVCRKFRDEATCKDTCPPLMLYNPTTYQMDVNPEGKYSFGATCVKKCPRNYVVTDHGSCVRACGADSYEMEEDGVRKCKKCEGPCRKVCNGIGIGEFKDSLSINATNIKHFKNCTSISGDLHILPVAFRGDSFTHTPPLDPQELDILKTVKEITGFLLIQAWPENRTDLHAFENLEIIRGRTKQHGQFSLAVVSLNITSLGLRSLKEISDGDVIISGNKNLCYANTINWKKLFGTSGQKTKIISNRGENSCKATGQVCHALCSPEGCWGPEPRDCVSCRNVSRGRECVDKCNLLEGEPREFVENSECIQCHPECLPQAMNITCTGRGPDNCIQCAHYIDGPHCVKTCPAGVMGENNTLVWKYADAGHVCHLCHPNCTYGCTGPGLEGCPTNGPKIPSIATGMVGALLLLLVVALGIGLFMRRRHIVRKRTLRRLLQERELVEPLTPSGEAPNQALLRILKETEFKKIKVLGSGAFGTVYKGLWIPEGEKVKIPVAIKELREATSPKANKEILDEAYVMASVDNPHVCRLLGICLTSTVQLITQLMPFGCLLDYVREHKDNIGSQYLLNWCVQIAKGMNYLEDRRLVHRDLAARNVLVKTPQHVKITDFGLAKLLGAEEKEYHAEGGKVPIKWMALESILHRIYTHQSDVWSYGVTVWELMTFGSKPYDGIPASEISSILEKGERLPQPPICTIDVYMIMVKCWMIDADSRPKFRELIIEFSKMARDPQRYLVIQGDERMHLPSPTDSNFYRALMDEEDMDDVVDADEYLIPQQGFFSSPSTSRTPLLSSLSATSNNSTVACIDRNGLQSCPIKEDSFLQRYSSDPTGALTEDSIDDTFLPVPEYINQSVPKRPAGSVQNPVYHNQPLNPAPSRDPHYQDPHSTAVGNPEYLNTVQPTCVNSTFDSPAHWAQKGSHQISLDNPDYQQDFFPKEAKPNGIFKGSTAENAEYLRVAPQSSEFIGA

T1 sequence (P00533 with tags, fused parts or gaps INS770NPG): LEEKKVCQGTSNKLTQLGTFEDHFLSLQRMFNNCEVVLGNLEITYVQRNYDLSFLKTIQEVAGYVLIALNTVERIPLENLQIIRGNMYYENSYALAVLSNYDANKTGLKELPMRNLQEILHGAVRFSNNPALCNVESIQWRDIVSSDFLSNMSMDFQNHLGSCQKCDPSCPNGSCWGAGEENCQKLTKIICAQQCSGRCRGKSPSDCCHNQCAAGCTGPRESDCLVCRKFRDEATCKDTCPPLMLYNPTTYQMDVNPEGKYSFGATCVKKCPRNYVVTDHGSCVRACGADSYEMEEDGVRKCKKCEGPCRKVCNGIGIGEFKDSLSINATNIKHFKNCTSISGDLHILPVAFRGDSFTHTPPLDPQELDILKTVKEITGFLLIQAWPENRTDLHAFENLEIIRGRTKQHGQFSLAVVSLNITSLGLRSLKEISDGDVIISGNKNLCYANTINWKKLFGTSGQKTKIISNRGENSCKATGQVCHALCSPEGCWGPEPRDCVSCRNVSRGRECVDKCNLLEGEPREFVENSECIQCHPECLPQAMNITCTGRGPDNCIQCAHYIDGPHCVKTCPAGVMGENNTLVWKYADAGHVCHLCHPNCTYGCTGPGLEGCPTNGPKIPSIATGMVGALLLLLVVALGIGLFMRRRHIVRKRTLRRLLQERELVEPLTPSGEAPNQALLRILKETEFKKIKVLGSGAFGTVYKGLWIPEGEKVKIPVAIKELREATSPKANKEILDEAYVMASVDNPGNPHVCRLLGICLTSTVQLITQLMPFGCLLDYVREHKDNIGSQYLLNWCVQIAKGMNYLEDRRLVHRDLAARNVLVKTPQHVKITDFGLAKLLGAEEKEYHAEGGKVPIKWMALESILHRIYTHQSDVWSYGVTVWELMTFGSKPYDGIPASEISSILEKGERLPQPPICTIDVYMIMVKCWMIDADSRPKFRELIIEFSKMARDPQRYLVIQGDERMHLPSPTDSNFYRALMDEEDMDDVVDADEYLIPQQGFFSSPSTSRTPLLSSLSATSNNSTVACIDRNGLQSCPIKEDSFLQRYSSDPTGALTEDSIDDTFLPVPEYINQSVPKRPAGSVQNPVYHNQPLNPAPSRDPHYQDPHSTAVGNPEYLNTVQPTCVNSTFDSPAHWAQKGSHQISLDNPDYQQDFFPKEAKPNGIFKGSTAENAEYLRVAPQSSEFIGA
T3 sequence (P00533 with tags, fused parts or gaps DUP767-769): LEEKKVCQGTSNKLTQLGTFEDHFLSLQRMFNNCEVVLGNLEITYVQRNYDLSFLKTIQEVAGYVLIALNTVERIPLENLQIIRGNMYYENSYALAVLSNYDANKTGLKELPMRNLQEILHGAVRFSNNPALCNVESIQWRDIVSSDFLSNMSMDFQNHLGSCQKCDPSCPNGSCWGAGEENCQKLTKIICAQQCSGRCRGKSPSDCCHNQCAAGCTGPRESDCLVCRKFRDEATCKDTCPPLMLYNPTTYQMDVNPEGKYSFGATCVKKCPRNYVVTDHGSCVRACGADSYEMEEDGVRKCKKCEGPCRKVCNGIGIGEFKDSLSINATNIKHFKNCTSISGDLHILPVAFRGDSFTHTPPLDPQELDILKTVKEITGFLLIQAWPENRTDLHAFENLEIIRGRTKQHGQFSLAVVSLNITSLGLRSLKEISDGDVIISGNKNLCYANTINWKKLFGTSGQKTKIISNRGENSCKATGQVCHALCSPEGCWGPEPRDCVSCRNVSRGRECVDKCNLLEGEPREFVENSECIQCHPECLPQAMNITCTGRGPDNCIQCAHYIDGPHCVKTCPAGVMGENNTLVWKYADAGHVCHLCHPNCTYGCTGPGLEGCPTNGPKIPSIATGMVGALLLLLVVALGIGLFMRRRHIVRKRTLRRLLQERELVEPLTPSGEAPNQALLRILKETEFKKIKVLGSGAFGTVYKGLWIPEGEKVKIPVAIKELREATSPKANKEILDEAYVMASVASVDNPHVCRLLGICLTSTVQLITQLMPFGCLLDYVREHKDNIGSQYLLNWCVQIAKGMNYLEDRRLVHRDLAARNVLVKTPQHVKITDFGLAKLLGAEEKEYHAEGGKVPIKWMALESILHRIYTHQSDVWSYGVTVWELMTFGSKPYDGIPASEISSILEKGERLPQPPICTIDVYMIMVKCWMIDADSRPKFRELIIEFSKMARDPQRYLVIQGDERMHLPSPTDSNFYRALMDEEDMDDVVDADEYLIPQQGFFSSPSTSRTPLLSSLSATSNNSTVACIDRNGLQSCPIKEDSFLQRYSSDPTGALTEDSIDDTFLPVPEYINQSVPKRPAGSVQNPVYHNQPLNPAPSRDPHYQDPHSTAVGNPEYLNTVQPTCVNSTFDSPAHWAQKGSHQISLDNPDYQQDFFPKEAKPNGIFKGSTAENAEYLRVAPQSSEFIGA
T2 sequence (P00533 with tags, fused parts or gaps INS769ASV): as the sequence (P00533 with tags, fused parts or gaps DUP767-769) above

SMILES | IC50 (pEGFR in CUTO14 cells) [nM] | IC50 [1] [nM] | IC50 [2] [nM] | IC50 (Ba/F3 cells with EGFR WT) [nM]
C=CC(=O)NC1(C#Cc2cnccc2-c2[nH]c3c(c2Nc2cccc(Cl)c2OC)C(=O)NCC3)CCN(C)CC1 [compound 411] | 100 to 1000 | 100 to 1000 | 100 to 1000 | > 1000
COc1c(Cl)cccc1Nc1c(-c2ccncc2OC[C@]2(C)CCN2C(=O)/C=C/CN(C)C)[nH]c2c1C(=O)NCC2 [compound 424] | < 100 | < 100 | < 100 | 100 to 1000
COc1c(Cl)cccc1Nc1c(-c2ccncc2OC[C@@]2(C)CCN2C(=O)/C=C/CN(C)C)[nH]c2c1C(=O)NCC2 [compound 425] | < 100 | < 100 | < 100 | 100 to 1000
CCc1c(F)cccc1Nc1c(-c2ccncc2OC[C@@]2(C)CCN2C(=O)/C=C/CN(C)C)[nH]c2c1C(=O)NCC2 [compound 426] | < 100 | < 100 | < 100 | 100 to 1000
CCc1c(F)cccc1Nc1c(-c2ccncc2OC[C@]2(C)CCN2C(=O)/C=C/CN(C)C)[nH]c2c1C(=O)NCC2 [compound 427] | < 100 | < 100 | < 100 | 100 to 1000
CC#CC(=O)N1CCOC[C@H]1COc1cnccc1-c1[nH]c2c(c1Nc1cccc(Cl)c1OC)C(=O)NCC2 [compound 429] | 100 to 1000 | < 100 | 100 to 1000 | 100 to 1000
C=CC(=O)N1CCC[C@]1(C)C#Cc1cnccc1-c1[nH]c2c(c1Nc1cc(F)cc(Cl)c1OC)C(=O)NCC2 [compound 430] | < 100 | < 100 | < 100 | 100 to 1000
CC#CC(=O)N1CCC[C@]1(C)C#Cc1cnccc1-c1[nH]c2c(c1Nc1cc(F)cc(Cl)c1OC)C(=O)NCC2 [compound 431] | < 100 | < 100 | < 100 | 100 to 1000
COc1c(Cl)cccc1Nc1c(-c2ccncc2C#C[C@@]2(C)CCCN2C(=O)C#CCN(C)C)[nH]c2c1C(=O)NCC2 [compound 433] | < 100 | < 100 | < 100 | 100 to 1000
COc1c(Cl)cc(F)cc1Nc1c(-c2ccncc2C#C[C@@]2(C)CCCN2C(=O)/C=C/CN(C)C)[nH]c2c1C(=O)NCC2 [compound 435] | < 100 | < 100 | < 100 | 100 to 1000
C=CC(=O)NC1(C#Cc2cnccc2-c2[nH]c3c(c2Nc2cc(F)cc(Cl)c2OC)C(=O)NCC3)COC1 [compound 440] | < 100 | < 100 | < 100 | 100 to 1000
COc1c(F)cccc1Nc1c(-c2ccncc2C#C[C@@]2(C)CCCN2C(=O)/C=C/CN2CC(OC)C2)[nH]c2c1C(=O)NCC2 [compound 441] | < 100 | < 100 | < 100 | 100 to 1000
COc1c(F)cccc1Nc1c(-c2ccncc2C#C[C@@]2(C)CCCN2C(=O)/C=C/CN2CCOCC2)[nH]c2c1C(=O)NCC2 [compound 442] | 100 to 1000 | 100 to 1000 | 100 to 1000 | > 1000
COc1c(F)cccc1Nc1c(-c2ccncc2C#C[C@@]2(C)CCCN2C(=O)/C=C/CN2CC[C@H](OC)C2)[nH]c2c1C(=O)NCC2 [compound 443] | < 100 | < 100 | < 100 | 100 to 1000
COc1c(F)cccc1Nc1c(-c2ccncc2C#C[C@@]2(C)CCCN2C(=O)/C=C/CN2CC[C@@H](OC)C2)[nH]c2c1C(=O)NCC2 [compound 444] | < 100 | < 100 | < 100 | 100 to 1000
COc1c(F)cccc1Nc1c(-c2ccncc2C#C[C@@]2(C)CCCN2C(=O)/C=C/CN2CC(F)(F)C2)[nH]c2c1C(=O)NCC2 [compound 445] | 100 to 1000 | 100 to 1000 | 100 to 1000 | > 1000
CC#CC(=O)N1CC[C@@H]1COc1cnccc1-c1[nH]c2c(c1Nc1cccc(C(F)F)c1OC)C(=O)NCC2 [compound 446] | < 100 | < 100 | < 100 | 100 to 1000
C#CC(=O)N1CC[C@@H]1COc1cnccc1-c1[nH]c2c(c1Nc1cccc(Cl)c1OC)C(=O)NCC2 [compound 447] | < 100 | < 100 | < 100 | 100 to 1000
C=CC(=O)NC(C)(C)COc1cnccc1-c1[nH]c2c(c1Nc1cccc(Cl)c1OC)C(=O)NCC2 [compound 448] | < 100 | < 100 | < 100 | 100 to 1000
C=CC(=O)N1CC2CC1(C#Cc1cnccc1-c1[nH]c3c(c1Nc1cccc(F)c1C)C(=O)NCC3)C2 [compound 452] | < 100 | < 100 | < 100 | 100 to 1000
CCc1c(F)cccc1Nc1c(-c2ccncc2C#CC(C)(C)NC(=O)/C=C/CN(C)C)[nH]c2c1C(=O)NCC2 [compound 453] | < 100 | < 100 | < 100 | 100 to 1000
COc1c(F)cccc1Nc1c(-c2ccncc2C#CC(C)(C)NC(=O)/C=C/CN2CC(F)C2)[nH]c2c1C(=O)NCC2 [compound 463] | < 100 | < 100 | 100 to 1000 | > 1000

Now from value to compound, other results behind:

IC50 (pEGFR in CUTO14 cells) [nM] | SMILES | IC50 [1] [nM] | IC50 [2] [nM] | IC50 (Ba/F3 cells with EGFR WT) [nM]
< 100 | COc1c(Cl)cccc1Nc1c(-c2ccncc2C#CC2(NC(=O)/C=C/CN(C)C)COC2)[nH]c2c1C(=O)NCC2 [compound 416] | 100 to 1000 | 100 to 1000 | > 1000
100 to 1000 | COc1c(F)cccc1Nc1c(-c2ccncc2C#CC2(NC(=O)/C=C/CN(C)C)COC2)[nH]c2c1C(=O)NCC2 [compound 417] | 100 to 1000 | 100 to 1000 | > 1000
100 to 1000 | COc1c(F)cccc1Nc1c(-c2ccncc2C#C[C@]2(NC(=O)/C=C/CN(C)C)CCOC2)[nH]c2c1C(=O)NCC2 [compound 418] | 100 to 1000 | 100 to 1000 | > 1000
100 to 1000 | COc1c(F)cccc1Nc1c(-c2ccncc2C#C[C@@]2(NC(=O)/C=C/CN(C)C)CCOC2)[nH]c2c1C(=O)NCC2 [compound 419] | 100 to 1000 | 100 to 1000 | > 1000
< 100 | COc1c(Cl)cccc1Nc1c(-c2ccncc2C#C[C@@]2(NC(=O)/C=C/CN(C)C)CCOC2)[nH]c2c1C(=O)NCC2 [compound 420] | < 100 | < 100 | 100 to 1000
< 100 | COc1c(Cl)cccc1Nc1c(-c2ccncc2C#C[C@]2(NC(=O)/C=C/CN(C)C)CCOC2)[nH]c2c1C(=O)NCC2 [compound 421] | < 100 | < 100 | > 1000
< 100 | COc1c(F)cccc1Nc1c(-c2ccncc2OC[C@@]2(C)CCN2C(=O)/C=C/CN(C)C)[nH]c2c1C(=O)NCC2 [compound 422] | < 100 | < 100 | 100 to 1000
< 100 | COc1c(F)cccc1Nc1c(-c2ccncc2OC[C@]2(C)CCN2C(=O)/C=C/CN(C)C)[nH]c2c1C(=O)NCC2 [compound 423] | < 100 | < 100 | > 1000
< 100 | COc1c(F)cccc1Nc1c(-c2ccncc2C#C[C@@]2(C)CCCN2C(=O)C#CCN(C)C)[nH]c2c1C(=O)NCC2 [compound 434] | < 100 | < 100 | 100 to 1000
< 100 | COc1c(Cl)cccc1Nc1c(-c2ccncc2C#CC23CC(CN2C(=O)/C=C/CN(C)C)C3)[nH]c2c1C(=O)NCC2 [compound 436] | < 100 | < 100 | 100 to 1000
< 100 | COc1c(F)cccc1Nc1c(-c2ccncc2C#CC23CC(CN2C(=O)/C=C/CN(C)C)C3)[nH]c2c1C(=O)NCC2 [compound 437] | < 100 | < 100 | 100 to 1000
< 100 | Cc1c(F)cccc1Nc1c(-c2ccncc2C#CC(C)(C)NC(=O)/C=C/CN(C)C)[nH]c2c1C(=O)NCC2 [compound 449] | < 100 | < 100 | 100 to 1000
< 100 | Cc1c(F)cccc1Nc1c(-c2ccncc2C#C[C@@]2(C)CCCN2C(=O)/C=C/CN(C)C)[nH]c2c1C(=O)NCC2 [compound 450] | < 100 | < 100 | 100 to 1000
< 100 | Cc1c(F)cccc1Nc1c(-c2ccncc2C#CC23CC(CN2C(=O)/C=C/CN(C)C)C3)[nH]c2c1C(=O)NCC2 [compound 451] | < 100 | < 100 | 100 to 1000
< 100 | COc1c(Cl)cccc1Nc1c(-c2ccncc2C#C[C@H]2CCN2C(=O)/C=C/CN(C)C)[nH]c2c1C(=O)NCC2 [compound 456] | < 100 | < 100 | 100 to 1000
< 100 | COc1c(Cl)cccc1Nc1c(-c2ccncc2C#C[C@@H]2CCN2C(=O)/C=C/CN(C)C)[nH]c2c1C(=O)NCC2 [compound 457] | < 100 | < 100 | < 100
> 1000 | COc1c(F)cccc1Nc1c(-c2ccncc2C#CC2(C)CCN2C(=O)/C=C/CN(C)C)[nH]c2c1C(=O)NCC2 (stereo not drawn) [compound 462] | > 1000 | > 1000 | > 1000

From patent US20230364070A1, “PYRROLO[3,2-C]PYRIDIN-4-ONE DERIVATIVES USEFUL IN THE TREATMENT OF CANCER” (Scorpion Therapeutics, Inc., priority 2020, published 2023)
